Results from US20070248599A1 (priority 2006, published 2007).

T1: ApoER2 (Mus musculus, UniProt Q924X6)
T1 construct: expressed in transfected cells; host or cells: HEK293 (inferred; the pull-down text names HEK293 lysates only for X11-transfected cells)
T1 sequence (Q924X6 29-996): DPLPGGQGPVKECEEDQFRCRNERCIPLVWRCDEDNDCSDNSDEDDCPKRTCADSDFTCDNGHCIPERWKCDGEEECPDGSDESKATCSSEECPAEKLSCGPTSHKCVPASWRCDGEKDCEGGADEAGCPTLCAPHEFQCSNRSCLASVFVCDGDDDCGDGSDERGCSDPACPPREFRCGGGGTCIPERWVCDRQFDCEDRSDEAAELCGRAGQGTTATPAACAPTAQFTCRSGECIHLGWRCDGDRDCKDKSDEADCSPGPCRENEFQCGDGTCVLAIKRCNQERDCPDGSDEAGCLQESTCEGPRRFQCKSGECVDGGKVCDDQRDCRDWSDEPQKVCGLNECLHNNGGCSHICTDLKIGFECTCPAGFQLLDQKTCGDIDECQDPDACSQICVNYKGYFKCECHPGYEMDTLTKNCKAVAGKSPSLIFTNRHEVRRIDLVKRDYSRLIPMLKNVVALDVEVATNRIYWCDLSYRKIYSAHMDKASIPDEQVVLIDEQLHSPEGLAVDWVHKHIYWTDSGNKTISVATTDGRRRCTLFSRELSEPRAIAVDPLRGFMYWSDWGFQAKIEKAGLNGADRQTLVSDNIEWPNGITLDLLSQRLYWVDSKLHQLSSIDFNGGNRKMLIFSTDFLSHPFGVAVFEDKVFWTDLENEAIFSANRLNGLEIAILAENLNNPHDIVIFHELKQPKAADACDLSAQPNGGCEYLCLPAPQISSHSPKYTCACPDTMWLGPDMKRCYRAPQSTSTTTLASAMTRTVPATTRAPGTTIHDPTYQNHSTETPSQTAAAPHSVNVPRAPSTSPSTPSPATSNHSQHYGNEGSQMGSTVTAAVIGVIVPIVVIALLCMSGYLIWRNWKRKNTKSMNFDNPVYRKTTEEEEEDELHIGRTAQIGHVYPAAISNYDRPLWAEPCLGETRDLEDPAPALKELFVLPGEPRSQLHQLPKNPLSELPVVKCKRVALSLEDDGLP

B1: PTB domain: PTB domain of X11α (residue 457-751), expressed from pcDNA6 as dominant-negative inhibitor or as GST fusion (protein)
chain: DGIIFAANYLGSTQLLSDKTPSKNVRMMQAQEAVSRIKMAQKLAKSRKKAPEGESQPMTEVDLFISTQRIKVLNADTQETMMDHPLRTISYIADIGNIVVLMARRRMPRSNSQENVEASHPSQDGKRQYKMICHVFESEDAQLIAQSIGQAFSVAYQEFLRANGINPEDLSQKEYSDLLNTQDMYNDDLIHFSKSENCKDVFIEKQKGEILGVVIVESGWGSILPTVIIANMMHGGPAEKSGKLNIGDQIMSINGTSLVGLPLSTCQSIIKGLKNQSRVKLNIVRCPPVTTVLIR
modifications: left off: a dimerising Fc or GST

Assays:
[1] = system: N2a-APPsw cells transfected with ApoER2 and β-secretase; assay: Internalization of cell surface proteins (biotinylation, Western blot); assay type: cell-based, mouse; settings: Western blot of conditioned medium (FIG. 6D)
N2a-APPsw cells [2] = assay: Cellular Aβ production in N2a-APPsw cells (Aβ40 ELISA of conditioned medium); assay type: cell-based, mouse
Protocol: Quantification of β-Amyloid40, Neuro-2a cell stably overexpressing APPsw695 was used for detecting of β-Amyloid40. N2a-APPsw cells were grown in Dulbecco's Modified Eagle's medium (DMED) containing 10% fetal bovine serum, 100 U/mL penicillin, and 100 μg/mL streptomycin (GibcoBUR) with 80 μg/mL G418. Cells were cultured in 24-well plates one day before treatment. Transient transfections were done using FeGENE6 (Roche), fresh Optimum medium (Invitrogen) were supplied 5 h after transfection. Same concentration purified Apolipoprotein was added into the fresh medium. Conditioned medium was collected 24 h later. Aβ40 was quantified with sandwich ELISA by using Aβ40 ELISA Kit (Biosource). At least three times assays were done for each condition.
(§1) Cellular Aβ40 production. Neuroblastoma N2a-APPsw cells (from Dr. Riqiang Yan, Lerner Research Institute, Cleveland, Ohio) were cultured in 24-well plates in Dulbecco's Modified Eagle's medium (DMED) containing 10% fetal bovine serum, 100 U/mL penicillin, and 100 μg/mL streptomycin (GibcoBUR) with 80 μg/mL G418 one day before use. Transient transfections were done using FeGENE6 (Roche), fresh Optimum medium (Invitrogen) were supplied 5 h after transfection. Apolipoproteins were added in the fresh medium at 10 μg/mL. Conditioned medium was collected 24 h later. Aβ40 was determined in tripcates using Aβ40 ELISA Kit (Biosource). For studying the effect of PTB domain on Aβ production, N2a-APPsw cells were transfected with (0.4 μg/per well for 24 well plate) of PTB-containing vector before subjected to the above procedure.

[3] = target: LDL (low-density lipoprotein) lipid receptor (Homo sapiens, UniProt P01130); settings: cited from earlier work
Chain of LDL (low-density lipoprotein) lipid receptor (P01130 22-860): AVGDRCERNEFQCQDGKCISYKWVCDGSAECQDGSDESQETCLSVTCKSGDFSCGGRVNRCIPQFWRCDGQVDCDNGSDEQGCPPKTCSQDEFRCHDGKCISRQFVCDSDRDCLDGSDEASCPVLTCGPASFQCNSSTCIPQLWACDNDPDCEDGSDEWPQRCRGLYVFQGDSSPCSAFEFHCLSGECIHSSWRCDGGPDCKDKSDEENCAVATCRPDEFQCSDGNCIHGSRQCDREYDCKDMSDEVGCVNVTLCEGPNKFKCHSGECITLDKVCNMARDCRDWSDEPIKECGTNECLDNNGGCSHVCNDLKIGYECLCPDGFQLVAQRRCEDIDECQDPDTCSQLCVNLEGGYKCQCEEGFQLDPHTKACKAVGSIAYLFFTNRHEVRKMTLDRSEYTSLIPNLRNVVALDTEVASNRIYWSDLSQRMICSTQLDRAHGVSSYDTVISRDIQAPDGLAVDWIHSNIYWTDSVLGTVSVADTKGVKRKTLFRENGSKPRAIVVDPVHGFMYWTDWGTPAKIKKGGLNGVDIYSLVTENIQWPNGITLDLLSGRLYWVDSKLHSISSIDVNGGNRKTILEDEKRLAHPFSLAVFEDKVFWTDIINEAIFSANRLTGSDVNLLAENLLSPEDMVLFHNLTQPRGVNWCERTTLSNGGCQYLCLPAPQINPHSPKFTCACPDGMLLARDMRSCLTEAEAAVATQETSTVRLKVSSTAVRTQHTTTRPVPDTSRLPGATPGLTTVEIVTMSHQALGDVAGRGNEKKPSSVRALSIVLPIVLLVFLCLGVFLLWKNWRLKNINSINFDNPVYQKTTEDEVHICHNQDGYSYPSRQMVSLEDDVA

[4] = system: N2a-APPsw cells transfected with ApoER2 and β-secretase; assay: Internalization of cell surface proteins (biotinylation, Western blot); assay type: cell-based, mouse
Protocol: Internalization of cell surface proteins. N2a-APPsw cells were transiently tranfected with ApoER2 and β-secretase with Lipfectamine 2000. […] Cells were then placed on ice, rinsed in cold PBS and incubated in PBS containing 1.5 mg/mL sulfo-NHS-LC-biotin (Pierce) for 20 min at 4° C. Cells were rinsed twice in PBS and lysed in 800 μl PBS containing 0.1% SDS, 1% NP40 and a complete protease inhibitor cocktail. Total protein concentration was determined by immunoblotting from an aliquot of 50 μl cell lysate. Biotinylated proteins were recovered with NeutrAvidin agarose (50 μl; Pierce), rinsed three times, eluted in 20 μl SDS-sample buffer at boiling temperature and used for Western-blot. Quantity of bands was determined by optical scanning instruments specified above. For the determination of internalized proteins, cells were prepared as above, rinsed in PBS and then incubated with cold 1.5 mg/mL cleavable biotin reagent in PBS (EZ-Link Sulfo-NHS-SS biotin, Pierce) for 20 min at 4° C. […] Cells were then lysed in 800 μl PBS containing 0.1% SDS, 1% NP40 and a complete protease inhibitor cocktail. After centrifugation, biotinylated proteins were retrieved by incubation with NeutrAvidin agarose (50 μl; Pierce). Isolated proteins were rinsed in buffer three times and boiled in 20 μl sample buffer for Western blots.

N2a-APPsw cells [5] = assay: Cellular Aβ production in N2a-APPsw cells (Aβ40 ELISA of conditioned medium); assay type: cell-based, mouse; remark: listed apart in the source
ApoER2 = target: T1, ApoER2; assay: GST pull-down of ApoER2 by X11α domains; assay type: binding, murine; settings: GST fusions of X11α domains, Western blot (FIG. 8A)
Text: cDNA vectors. Vectors for human β-secretase and Swedish mutant of APP were previously described (Lin et al., 2000). Vectors for human X11α, X11β, human LRP, and murine ApoER2 were kindly provided by Dr. Chistopher C J Miller (Kings College London, UK), Dr. Ben Margolis (University of Michigan), Dr. Guojun Bu (Washington University), and Dr. Johannes Nimpf (University of Vienna, Austria) respectively. PCR was used for transferring murine ApoER2 gene into pcDNA6 with V5-His-Tag at the C-terminus and for creating mutants of murine ApoER2 in pcDNA6. PTB domain of X11α (residue 457-751) were amplified by PCR and inserted into pcDNA6. GST constructs of GST-PTB (457-751), GST-PDZ (650-837) of X11α and GST constructs of ApoER2 cytosolic domain GST-ApoC1 (881-996), GST-ApoC2 (881-925), GST-ApoC3 (926-996) and GST-APPc (650-695) were amplified by PCR and inserted into plasmid pGEX6.1 (Pharmacia). All constructs were verified by sequencing. GST fusion proteins were produced in Escherichia coli BL21 strain and purified as described previously (He et al., 2003).
Pull-down assays. For GST pull down, GST fusion proteins were retrieved as previously described (He et al., 2003). The amount of protein recovered with glutathione beads was determined using Bio-Rad Protein Assay and diluted to yield a concentration of 1 mg protein/mL of beads. […]

endogenous X11α/β = assay: Effect of transfected PTB domain of X11α on ApoE-induced Aβ production; assay type: cell-based, mouse; settings: PTB expression in N2a-APPsw cells, 0.4 μg vector per well (FIG. 9B)
Protocol: as §1

[6] = 10 μg/mL, internalization 15 min at 37° C. (FIG. 6B)

| Molecule | APP ectodomain generated by ∝-secretase, s∝-APP [1] | Aβ production in cells transfected with ApoER2 versus without (N2a-APPsw cells [2]; N2a-APPsw cells (FIG. 5D)) | Aβ40 and Aβ42 production, ApoE4 in native human VLDL versus ApoE2 and ApoE3 (N2a-APPsw cells [2]; VLDL from individual human plasma, N2a-APPsw cells (FIG. 5C)) | Aβ production (N2a-APPsw cells [2]; recombinant ApoE forms at 10 μg/ml, N2a-APPsw cells (FIG. 5B)) | normal receptor binding activity [3] [%] | total amounts of ApoER2, APP and β-secretase in the cell lysates ([4]; 10 μg/mL, 2 h) | decrease of remaining cell-surface β-secretase ([4]; 10 μg/mL, 2 h, compared to controls (FIG. 6A)) [%] | increase of intracellular APP [4, 6] [fold] | increase of intracellular ApoER2 [4, 6] | increase of intracellular β-secretase [4, 6] | intracellular APP C-terminal fragment C99 ([4]; Western blot, over the control (FIG. 6C)) | Aβ40 increase in cells transfected with ApoER2 versus blank vectors (N2a-APPsw cells [5]; 5 μg/mL, N2a APPsw cells, p<0.05 (FIG. 4)) | Aβ40 levels in medium (N2a-APPsw cells [5]; 5 μg/mL, blank vector transfected N2a APPsw cells vs control (FIG. 4)) | Aβ production (N2a-APPsw cells [5]; each at 5 μg/mL, 24 h, N2a-APPsw cells (FIG. 5B legend)) | pull down of ApoER2 from the cell lysate (ApoER2) | ApoE4-induced Aβ increase (endogenous X11α/β) |
| --- | --- | --- | --- | --- | --- | --- | --- | --- | --- | --- | --- | --- | --- | --- | --- | --- |
| ApoE4: ApoE isoform with arginine substituted for cysteine at residue 112; from Biodesign / Alpha Diagnostic | reduction | produced more Aβ | stimulates higher Aβ production | increased Aβ production (FIG. 5B) with the highest response | 100 | remained about the same | ~35 | ~4 | small increases | small increases | significantly increased | increase of Aβ40 at a greater extent | increased over that in the control cells | increased Aβ production |  |  |
| B1 |  |  |  |  |  |  |  |  |  |  |  |  |  |  | pull down ApoER2 | largely abolished |
